Measured values reported in patent US20240166649A1, “DIHYDROPYRIMIDINE COMPOUND, PREPARATION METHOD THEREFOR AND APPLICATION THEREOF” (Shanghai Visonpharma Co., Ltd., priority 2021, published 2024).

Test system: HBV (hepatitis B virus) in HepG2.2.15 cells
Experiment: Cell-based anti-viral activity assay (HBV DNA in supernatant by quantitative PCR)
Details: 120 h, anti-HBV activity, HepG2.2.15 cells, 5 days, read-out: EC50 (HepG2.2.15)
Method: Cell-Based Anti-Viral Activity Assay
The Invention determined the anti-HBV (hepatitis B virus) activity of compounds in HepG2.2.15 cells (Table 1).
HepG2.2.15 is a cell line stably transfected with the HBV genome. HepG2.2.15 cells were cultured in DMEM (1X) with 10% fetal bovine serum (Corning), 100 U penicillin (Gibico), 100 μg/mL streptomycin (Gibico), 250 μg/mL geneticin (Gibco) and GlutaMAXTM-I medium (Invitrogen).
HepG2.2.15 cells were seeded into 96-well plates (4×10^4 cells in 100 μL of medium per well) and incubated overnight at 37° C. The test compounds were weighed and prepared as 10 mM stock solution with DMSO. The stock solutions of the compounds were diluted by a gradient of 3.16 times with DMSO, and then diluted by a gradient of 3.16 times with medium for 50 times. Finally, the diluted compound solutions were added to the cell plate with a total volume of 200 μL and the final DMSO concentration was 1%. The 96-well culture plates loaded with drugs were transferred to an incubator at 37° C. for 5 days. […] nucleic acid releasing agent was added to 96-well PCR reaction plate, and 2 μL of cell supernatant or HBV quantitative standards were added to the corresponding Wells. Centrifuged the plates to fully mix, and incubated at room temperature for 10 min to fully release nucleic acid. Quantified HBV DNA content by fluorescent quantitative PCR (CFX Connect Real-Time System) using Sanxiang Bio hepatitis B virus fluorescent quantitative diagnostic kit.
The standard curve was established by taking the logarithm of the copy number (IU/ml) of the HBV standard sample (log 10) as the abscordinate and the corresponding CT value as the ordinate. The copy number of the sample was calculated according to the corresponding CT of the positive sample and the standard curve, and the percentage of inhibition rate was calculated as follows: • % Inhibition=100-100*(sample HBV copy number−high concentration reference compound column HBV copy number)/DMSO column HBV copy number−high concentration reference compound column HBV copy number).

SMILES | EC50 [nM]
CCOC(=O)C1=C(CN2CCN3C(=O)N(C45CC(COC)(C4)C5)C[C@@H]3C2)NC(c2nccs2)=N[C@H]1c1cccc(F)c1C [Compound 3, Ethyl (S)-4-(3-Fluoro-2-Methylphenyl)-6-(((S)-2-(3-(Methoxymethyl)Bicyclo[1.1.1]Pentan-1-Yl)-3-Oxohexahydroimidazo[1,5-a]Pyrazin-7(1H)-Yl)Methyl)-2-(Thiazol-2-Yl)-1,4-Dihydropyrimidine-5-Carboxylate] | 4
CCOC(=O)C1=C(CN2CCN3C(=O)N(C45CC(CC(C)(C)C(=O)O)(C4)C5)C[C@@H]3C2)NC(c2nccs2)=N[C@H]1c1cccc(F)c1C [Compound 4] | 8
CCOC(=O)C1=C(CN2CCN3C(=O)N(C45CC(C(=O)N6CCCC6)(C4)C5)C[C@@H]3C2)NC(c2nccs2)=N[C@H]1c1cccc(F)c1C [Compound 6, Ethyl (S)-4-(3-Fluoro-2-Methylphenyl)-6-(((S)-3-Oxo-2-(3-(Pyrrolidine-1-Carbonyl)Bicyclo[1.1.1]Pentan-1-Yl)Hexahydroimidazo[1,5-a]Pyrazin-7(1H)-Yl)Methyl)-2-(Thiazol-2-Yl)-1,4-Dihydropyrimidine-5-Carboxylate] | 8
CCOC(=O)C1=C(CN2CCN3C(=O)N(C45CC(C(N)=O)(C4)C5)C[C@@H]3C2)NC(c2nccs2)=N[C@H]1c1cccc(F)c1C [Compound 7, ethyl (S)-6-(((S)-2-(3-Carbamoylbicyclo[1.1.1]Pentan-1-Yl)-3-Oxohexahydroimidazo[1,5-a]Pyrazin-7(1H)-Yl)Methyl)-4-(3-Fluoro-2-Methylphenyl)-2-(Thiazol-2-Yl)-1,4-Dihydropyrimidine-5-Carboxylate] | 7
CCOC(=O)C1=C(CN2CCN3C(=O)N(C45CC(CS(C)(=O)=O)(C4)C5)C[C@@H]3C2)NC(c2nccs2)=N[C@H]1c1cccc(F)c1C [Compound 8, Ethyl (S)-4-(3-Fluoro-2-Methylphenyl)-6-(((S)-2-(3-((Methylsulfonyl)Methyl)Bicyclo[1.1.1]Pentan-1-Yl)-3-Oxohexahydroimidazo[1,5-a]Pyrazin-7(1H)-Yl)Methyl)-2-(Thiazol-2-Yl)-1,4-Dihydropyrimidine-5-Carboxylate] | 4
CCOC(=O)C1=C(CN2CCN3C(=O)N(C45CC(NS(C)(=O)=O)(C4)C5)C[C@@H]3C2)NC(c2nccs2)=N[C@H]1c1cccc(F)c1C [Compound 9, Ethyl (S)-4-(3-Fluoro-2-Methylphenyl)-6-(((S)-2-(3-(Methylsulfonamido)Bicyclo[1.1.1]Pentan-1-Yl)-3-Oxohexahydroimidazo[1,5-a]Pyrazin-7(1H)-Yl)Methyl)-2-(Thiazol-2-Yl)-1,4-Dihydropyrimidine-5-Carboxylate] | 4
CCOC(=O)C1=C(CN2CCN3C(=O)N(C45CC(NC(C)=O)(C4)C5)C[C@@H]3C2)NC(c2nccs2)=N[C@H]1c1cccc(F)c1C [Compound 10, Ethyl (S)-6-(((S)-2-(3-Acetamidobicyclo[1.1.1]Pentan-1-Yl)-3-Oxohexahydroimidazo[1,5-a]Pyrazin-7(1H)-Yl)Methyl)-4-(3-Fluoro-2-Methylphenyl)-2-(Thiazol-2-Yl)-1,4-Dihydropyrimidine-5-Carboxylate] | 8
CCOC(=O)C1=C(CN2CCN3C(=O)N(C45CC(N(C)S(C)(=O)=O)(C4)C5)C[C@@H]3C2)NC(c2nccs2)=N[C@H]1c1cccc(F)c1C [Compound 11, Ethyl (S)-4-(3-Fluoro-2-Methylphenyl)-6-(((S)-2-(3-(N-Methylmethylsulfonamido)Bicyclo[1.1.1]Pentan-1-Yl)-3-Oxohexahydroimidazo[1,5-a]Pyrazin-7(1H)-Yl)Methyl)-2-(Thiazol-2-Yl)-1,4-Dihydropyrimidine-5-Carboxylate] | 4
CCOC(=O)C1=C(CN2CCN3C(=O)N(C45CC(N(C)C(C)=O)(C4)C5)C[C@@H]3C2)NC(c2nccs2)=N[C@H]1c1cccc(F)c1C [Compound 12, Ethyl (S)-4-(3-Fluoro-2-Methylphenyl)-6-(((S)-2-(3-(N-Methylacetamido)Bicyclo[1.1.1]Pentan-1-Yl)-3-Oxohexahydroimidazo[1,5-a]Pyrazin-7(1H)-Yl)Methyl)-2-(Thiazol-2-Yl)-1,4-Dihydropyrimidine-5-Carboxylate] | 3
